Data taken from patent US11980211B2, “Verbascoside and related compounds for sweetness enhancement” (International Flavors & Fragrances Inc., priority 2018, dated 2024).

Legend:
[1] = Flavor profile of sucrose solution with added verbascoside or isoverbascoside; details: sucrose solution (4%)
Method: A sucrose solution (4%) was prepared in water. Each of verbascoside and isoverbascoside solutions of different concentrations was prepared in ethanol solution in water (50%). Verbascoside and isoverbascoside were evaluated at 1 and 200 ppm, respectively.
The flavor profile of the sucrose solution with added verbascoside and isoverbascoside is reported in the following: […]

[2] = Flavor profile of Luo Han Guo solution with added verbascoside or isoverbascoside; details: Luo Han Guo solution (120 ppm)
Method: A Luo Han Guo (Biovittoria Ltd., New Zealand) solution was prepared in water (120 ppm). Verbascoside and isoverbascoside solutions were prepared as above (EXAMPLE II). The flavor profile of the Luo Han Guo solution with added verbascoside and isoverbascoside is reported in the following: […]

SMILES | overall effect (summary) [1] | overall effect (summary) [2]
CC1OC(OC2C(O)C(OCCc3ccc(O)c(O)c3)OC(CO)C2OC(=O)/C=C/c2ccc(O)c(O)c2)C(O)C(O)C1O [Verbascoside, (E)-2-(3,4-dihydroxyphenyl)ethyl 3-O-(6-deoxy-α-L-mannopyranosyl)-4-[3-(3,4-dihydroxyphenyl)-2-propenoate]-β-D-Glucopyranoside] | exhibited particular effect in sweetness enhancement | exhibited particular effect in sweetness enhancement
CC1OC(OC2C(O)C(COC(=O)/C=C/c3ccc(O)c(O)c3)OC(OCCc3ccc(O)c(O)c3)C2O)C(O)C(O)C1O (stereo not shown) [Isoverbascoside, isoverbascoside] | enhanced overall mouthfeel | enhanced overall mouthfeel and suppressed Luo Han Guo's lingering off-taste
